In ChEMBL document CHEMBL1201862, “PubChem BioAssay data set” (2004):
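How tested: cells in 96-well plates exposed to compound for 48 hours at five concentrations. Here, GI50 denotes the concentration required for 50% inhibition of growth.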 Activity calls are given as the source filed them. Cut-off read from the data, not from the text of the source: active = GI50 up to about 1.1 µM and inactive = higher.

Experiments:
Test in all cases: DTP human tumour cell line panel, 48 h
[1] = tested on: SK-MEL-28
[2] = tested on: SF-539
[3] = tested on: U-251
[4] = tested on: OVCAR-4
[5] = tested on: HL-60
[6] = tested on: HCT-116
[7] = tested on: MOLT-4
[8] = tested on: MDA-MB-231
[9] = tested on: SK-MEL-5
[10] = tested on: NCI-H23
[11] = tested on: A549
[12] = tested on: A498
[13] = tested on: Malme-3M
[14] = tested on: PC-3
[15] = tested on: OVCAR-3
[16] = tested on: OVCAR-8
[17] = tested on: HT-29
[18] = tested on: MCF7

Measured: GI50

CCNC(=O)NNc1ncnc2c1c(-c1ccc(Cl)cc1)cn2-c1ccc(C)cc1
inactive: [1] 18.9 µM | [2] 16.7 µM | [3] 17.1 µM | [4] 11.5 µM | [5] 16 µM | [6] 14.9 µM | [7] 16.4 µM | [8] 19.6 µM | [9] 14.7 µM | [10] 24.6 µM | [11] 17.7 µM | [12] 15.7 µM | [13] 18.8 µM | [14] 17.7 µM | [15] 16.7 µM | [16] 15 µM | [17] 18.3 µM

COc1cc(OC)cc(-n2c(N)c(-c3nc4ccccc4n3C)c3ccc([N+](=O)[O-])cc3c2=O)c1
inactive: [1] > 100 µM | [3] 46.8 µM | [4] 28.2 µM | [6] > 100 µM | [8] 80.5 µM | [9] > 100 µM | [10] > 100 µM | [11] > 100 µM | [12] > 100 µM | [14] > 100 µM | [16] 32 µM | [17] > 100 µM

N#C/C(C(=O)Nc1ccccc1)=C(/N)N1CCCCC1
inactive: [1] > 100 µM | [2] > 100 µM | [3] > 100 µM | [6] > 100 µM | [7] > 100 µM | [18] > 100 µM | [9] > 100 µM | [10] > 100 µM | [11] > 100 µM | [14] > 100 µM | [15] > 100 µM | [16] > 100 µM | [17] > 100 µM

NC(CCc1ccccc1)(C(=O)O)c1ccccc1 (stereo not given)
inactive: [1] > 100 µM | [3] > 100 µM | [4] > 100 µM | [6] > 100 µM | [7] > 100 µM | [8] > 100 µM | [9] > 100 µM | [10] > 100 µM | [11] > 100 µM | [12] > 100 µM | [13] > 100 µM | [14] > 100 µM | [15] > 100 µM | [16] > 100 µM | [17] > 100 µM

COC(=O)C1=C(C(=O)OC)C(N(C)C)C(C(=O)OC)=C(C(=O)OC)S1
inactive: [1] > 100 µM | [3] > 100 µM | [4] > 100 µM | [6] > 100 µM | [7] > 100 µM | [8] > 100 µM | [18] > 100 µM | [10] > 100 µM | [11] > 100 µM | [12] > 100 µM | [14] > 100 µM | [15] > 100 µM | [16] > 100 µM

CCOC(=O)C(NC(=O)Nc1ccc(Cl)cc1)(OC)C(F)(F)F (stereo not given)
inactive: [1] > 100 µM | [2] 19.7 µM | [3] 52.5 µM | [5] 9.68 µM | [6] 1.94 µM | [9] 15.1 µM | [10] 37.9 µM | [11] 8.49 µM | [12] 14 µM | [14] 32.3 µM | [16] 49.3 µM | [17] > 100 µM

COc1ccc(C)cc1NC(=S)N/N=C/c1ccco1
inactive: [1] 60.8 µM | [2] 27.6 µM | [4] 37.4 µM | [5] 22 µM | [6] 36.2 µM | [7] 31.7 µM | [18] 4.94 µM | [9] 14.7 µM | [10] 53.2 µM | [11] 48.4 µM | [12] 57.3 µM | [13] 52.2 µM | [14] 43.4 µM | [15] 49.2 µM | [16] 37.3 µM | [17] 29 µM

CCCCc1ccc(N2C(=O)c3cc(C)cnc3S2(=O)=O)cc1
inactive: [1] > 100 µM | [3] > 100 µM | [4] > 100 µM | [5] > 100 µM | [6] > 100 µM | [7] > 100 µM | [8] > 100 µM | [18] > 100 µM | [9] > 100 µM | [10] > 100 µM | [11] > 100 µM | [13] > 100 µM | [14] > 100 µM | [15] > 100 µM | [16] > 100 µM | [17] > 100 µM

CSC(SC)(C(=O)O)c1cc(-c2c(Cl)cccc2Cl)no1
inactive: [1] > 100 µM | [2] > 100 µM | [3] 28.4 µM | [4] 37.9 µM | [6] 26.9 µM | [7] 24.5 µM | [8] 31.4 µM | [18] 70.1 µM | [9] 33.7 µM | [10] 19.2 µM | [11] 55.1 µM | [13] 60.8 µM | [14] 34 µM | [15] 55.6 µM | [16] > 100 µM | [17] 32.9 µM
